Columns and labels:
[1] = biological target: T1, Bifunctional dihydrofolate reductase-thymidylate synthase (Toxoplasma gondii, UniProt Q07422)
T1 sequence (Q07422 whole entry): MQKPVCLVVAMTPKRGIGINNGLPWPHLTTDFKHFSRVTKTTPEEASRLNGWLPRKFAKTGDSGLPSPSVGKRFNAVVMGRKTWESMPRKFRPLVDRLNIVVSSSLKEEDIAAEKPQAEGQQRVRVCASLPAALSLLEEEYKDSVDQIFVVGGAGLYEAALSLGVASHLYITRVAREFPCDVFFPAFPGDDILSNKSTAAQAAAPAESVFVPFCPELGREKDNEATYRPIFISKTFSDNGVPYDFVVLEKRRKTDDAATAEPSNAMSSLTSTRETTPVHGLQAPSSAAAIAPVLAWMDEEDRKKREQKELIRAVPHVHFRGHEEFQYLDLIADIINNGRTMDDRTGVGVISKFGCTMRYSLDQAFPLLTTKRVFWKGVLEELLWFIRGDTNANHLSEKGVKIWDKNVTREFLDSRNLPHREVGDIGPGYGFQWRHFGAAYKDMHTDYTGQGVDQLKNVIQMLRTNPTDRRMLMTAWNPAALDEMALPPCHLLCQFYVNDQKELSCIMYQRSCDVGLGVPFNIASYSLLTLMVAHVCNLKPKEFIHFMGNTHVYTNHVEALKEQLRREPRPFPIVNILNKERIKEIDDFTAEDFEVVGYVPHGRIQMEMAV
Description: Inhibition of Dihydrofolate reductase of Toxoplasma gondii

Dihydrofolate reductase [2] = biological target: T2, Dihydrofolate reductase (Pneumocystis carinii, UniProt P16184)
T2 sequence (P16184 whole entry): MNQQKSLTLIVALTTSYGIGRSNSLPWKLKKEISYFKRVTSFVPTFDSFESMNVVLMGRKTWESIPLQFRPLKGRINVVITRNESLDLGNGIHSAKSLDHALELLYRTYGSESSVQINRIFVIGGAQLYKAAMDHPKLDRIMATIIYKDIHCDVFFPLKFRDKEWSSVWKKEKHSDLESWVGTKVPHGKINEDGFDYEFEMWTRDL
Description: Inhibition of Dihydrofolate reductase of Pneumocystis carinii

Dihydrofolate reductase [3] = biological target: T3, Dihydrofolate reductase (Rattus norvegicus, UniProt Q920D2)
T3 sequence (Q920D2 whole entry): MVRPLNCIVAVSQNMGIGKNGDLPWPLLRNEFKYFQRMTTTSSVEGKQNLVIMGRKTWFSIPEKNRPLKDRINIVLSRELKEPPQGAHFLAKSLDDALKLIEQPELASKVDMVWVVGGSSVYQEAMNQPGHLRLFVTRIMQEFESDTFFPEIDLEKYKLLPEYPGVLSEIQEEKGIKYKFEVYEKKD
Description: Inhibition of Dihydrofolate reductase (DHFR) of in rat liver

| Compound | IC50 (Dihydrofolate reductase [2]) | IC50 (Dihydrofolate reductase [3]) | IC50 [1] |
| --- | --- | --- | --- |
| COc1ccc(OC)c(CCCNc2ccc3nc(N)nc(N)c3c2Cl)c1 | 26000 nM | 1900 nM | 1000 nM |
| COc1ccc(OC)c(CNc2ccc3nc(N)nc(N)c3c2Cl)c1 | 53 nM | 28 nM | 17 nM |
| COc1ccc(OC)c(CCNc2ccc3nc(N)nc(N)c3c2Cl)c1 | 12000 nM | – | 990 nM |
| COc1cc(NCc2ccc3nc(N)nc(N)c3c2Cl)cc(OC)c1OC | 33 nM | 5.9 nM | 5.2 nM |
| COc1cc(N(C)Cc2ccc3nc(N)nc(N)c3c2Cl)cc(OC)c1OC | – | – | 6.4 nM |
| COc1ccc(OC)c(NCc2ccc3nc(N)nc(N)c3c2Cl)c1 | 51 nM | 44 nM | 30 nM |

Continued, in another order:

| IC50 (Dihydrofolate reductase [2]) | IC50 (Dihydrofolate reductase [3]) | Compound | IC50 [1] |
| --- | --- | --- | --- |
| 33 nM | 6 nM | COc1cc(CNc2ccc3nc(N)nc(N)c3c2Cl)cc(OC)c1OC | 7 nM |
| 43000 nM | 5400 nM | COc1cc(CCNc2ccc3nc(N)nc(N)c3c2Cl)cc(OC)c1OC | 2600 nM |
| 95000 nM | – | COc1cc(CCCNc2ccc3nc(N)nc(N)c3c2Cl)cc(OC)c1OC | 14000 nM |
| 170 nM | 38 nM | COc1cc(CN(C)c2ccc3nc(N)nc(N)c3c2Cl)cc(OC)c1OC | 16 nM |

From ChEMBL document CHEMBL1127704 (J Med Chem, 1994)
